One assay concerns the target T1, hMC5-R (Homo sapiens, UniProt P33032).
T1 construct: expressed in transfected cells; host or cells: HEK 293 cells (membranes)
Put plainly: Competitive inhibition binding assay with 125I-NDP-MSH, MC5 receptor. The following applies: 10 μM peptide, 0 assigned when raw inhibition between −10% and 10%, read-out: % Inhibition at 10 μM concentration at MC5-Receptor. As to the method:
(§1) Competitive inhibition binding assay was conducted using membranes prepared from hMC3-R, hMC4-R, hMC5-R, and B-16 mouse melanoma cells (containing MC1-R) using 0.4 nM ^125I-NDP-MSH (0.2 nM for MCL-R) (New England Nuclear, Boston, Mass., USA) in 50 mM HEPES buffer containing 1 mM MgCl2, 2 mM CaCl2, and 5 mM KCl, at pH 7.2. The assay tube also contained a chosen concentration of the peptides of this invention, for determining inhibition of the binding of ^125I-NDP-MSH to its receptor. Non-specific binding was measured by complete inhibition of binding of ^125I-NDP-MSH in the assay in the presence of 1 μM α-MSH. Incubation was for 90 minutes at 37° C., after which the assay mixture was filtered and the membranes washed three times with ice cold buffer. The filter was dried and counted in a gamma counter for remaining radioactivity bound to the membranes. 100% specific binding was defined as the difference in radioactivity (cpm) bound to cell membranes in the absence and presence of 1 μM α-MSH. The cpm obtained in the presence of peptides of this invention were normalized with respect to 100% specific binding to determine the percent inhibition of ^125I-NDP-MSH binding. Each assay was conducted in triplicate.
(§2) The binding of the peptides of Examples 1 to 13, inclusive, to melanocortin receptors was evaluated, with results shown on Table 1. Relative binding was determined by competitive inhibition using an α-MSH analog, iodinated NDP-MSH. B16-Fl mouse melanoma cells were used as the source of MC1 receptors and HEK 293 cells, transfected with human melanocortin receptor sequences, were used as the source of MC3, MC4 and MC5 receptors. A standard competitive binding assay protocol as described above was followed, using ^125I-NDP-MSH as the radioligand. A “0” percent inhibition was assigned when the raw percent inhibition, as an average of at least triplicate measures, was between −10% and 10%; in the majority of instances, the raw percent inhibition was between −10% and 0% inhibition.

For another assay, the target named is T2, hMC3-R (Homo sapiens, UniProt P41968).
T2 construct: expressed in transfected cells; host or cells: HEK 293 cells (membranes)
T2 sequence (P41968 whole entry): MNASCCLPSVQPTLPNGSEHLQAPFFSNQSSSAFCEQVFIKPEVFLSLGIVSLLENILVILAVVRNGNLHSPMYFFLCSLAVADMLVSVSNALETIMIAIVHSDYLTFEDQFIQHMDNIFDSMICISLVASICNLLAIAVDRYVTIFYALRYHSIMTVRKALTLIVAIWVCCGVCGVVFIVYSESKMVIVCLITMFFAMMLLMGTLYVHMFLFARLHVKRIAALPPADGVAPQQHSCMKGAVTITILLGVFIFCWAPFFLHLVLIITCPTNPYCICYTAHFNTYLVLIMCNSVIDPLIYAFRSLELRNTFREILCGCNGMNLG
Put plainly: Competitive inhibition binding assay with 125I-NDP-MSH, MC3 receptor. The following applies: 10 μM peptide, 0 assigned when raw inhibition between −10% and 10%, read-out: % Inhibition at 10 μM concentration at MC3-Receptor. On the procedure:
as §1, §2

Assay [1] concerns the target T3, MC1-R (B16-F1 mouse melanoma cells) (Mus musculus, UniProt Q01727).
T3 construct: B-16 mouse melanoma cells (containing MC1-R); endogenous in cells; host or cells: B16-F1 mouse melanoma cells (membranes)
Briefly: Competitive inhibition binding assay with 125I-NDP-MSH, MC1 receptor. The following applies: 10 μM peptide, 0 assigned when raw inhibition between −10% and 10%, read-out: % Inhibition at 10 μM concentration at MC1-Receptor. On the procedure: as §1, §2

The target of another assay is T4, hMC4-R (Homo sapiens, UniProt P32245).
T4 construct: expressed in transfected cells
T4 sequence (P32245 whole entry): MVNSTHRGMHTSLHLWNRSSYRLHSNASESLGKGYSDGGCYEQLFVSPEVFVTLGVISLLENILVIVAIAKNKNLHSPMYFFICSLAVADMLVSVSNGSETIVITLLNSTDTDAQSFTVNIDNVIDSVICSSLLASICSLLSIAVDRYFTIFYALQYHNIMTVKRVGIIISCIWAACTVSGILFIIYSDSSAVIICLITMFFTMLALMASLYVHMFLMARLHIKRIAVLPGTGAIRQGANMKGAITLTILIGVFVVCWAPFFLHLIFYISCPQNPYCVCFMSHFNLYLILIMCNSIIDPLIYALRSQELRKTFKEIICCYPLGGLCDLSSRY
Briefly: Competitive inhibition binding assay with 125I-NDP-MSH, MC4 receptor. The following applies: 10 μM peptide, 0 assigned when raw inhibition between −10% and 10%, read-out: % Inhibition at 10 μM concentration at MC4-Receptor. As to the method: as §1, §2

For the next assay, the system named is male Sprague-Dawley rats. Briefly: Induction of penile erections in male rats. Type of assay: in vivo, rat. As to the method:
The ability of the peptides of Examples 1 to 13 to induce penile erection in male rats was evaluated. Male Sprague-Dawley rats weighing 200-250 g were kept on a 12 hour on/off light cycle with food and water ad libitum. All behavioral studies were performed between 10 a.m. and 5 p.m. Groups of 4-8 rats were treated with peptides at a variety of doses via intravenous administration. Immediately after administration, rats were placed into individual polystyrene cages (27 cm long, 16 cm wide, and 25 cm high) for behavioral observation.
The efficacious dose of NH2—(CH2)6CO-Ser(Bzl)-D-Phe(4-Cl)-Arg, made as in Example 1 above, to induce penile erection in Sprague Dawley rats by intravenous dosing and oral administration was determined. […] NH2—(CH2)6CO-Ser(Bzl)-D-Phe(4-Cl)-Arg was efficacious at doses as low as 0.1 to 1 μg/kg of body weight when administered by oral means, and at doses lower than 0.001 μg/kg of body weight when administered by intravenous means.
The efficacious dose of NH2—(CH2)6—CO-Ser(Bzl)-D-Phe(4-Cl)-Arg(NO2), made as in Example 5 above, to induce penile erection in Sprague Dawley rats by intravenous dosing was determined. […] It was determined that NH2—(CH2)6—CO-Ser(Bzl)-D-Phe(4-Cl)-Arg(NO2) was efficacious at doses as low as 0.001 to 10 μg/kg of body weight when administered by intravenous means, with efficacy determined by induction of penile erection in 100% of animals. The optimal dose response was at 1 μg/kg of body weight. FIG. 1 depicts the dose response profile, with the error bars depicting standard deviation where n (the number of animals) is between 8 and 19, depending on the dose point.
The efficacious dose of NH2—(CH2)6—CO-Ser(Bzl)-D-Phe(4-Cl)-Arg(NO2), made as in Example 5 above, to induce penile erection in Sprague Dawley rats by intranasal administration using a micropipetor to deliver 25 μL of solution into one nostril was determined. […] It was determined that NH2—(CH2)6—CO-Ser(Bzl)-D-Phe(4-Cl)-Arg(NO2) was efficacious at doses between 0.01 μg/kg and 100 μg/kg of body weight when administered by intranasal means. The peak dose response was at an intranasal dose of 0.1 μg/kg of body weight.

The next assay deals with male rats. Put plainly: Induced penile erections after pre-administration of MC4-R antagonist SHU9119. It is filed as in vivo, rat. The following applies: SHU9119 approximately 5 minutes before peptide. From the text:
It is known that MC4-R antagonists inhibit the erectile activity of MC4-R agonists in a dose dependent manner. Such antagonists include SHU9119, a nonselective melanocortin antagonist of the formula Ac-Nle-cyc/o(-Asp-His-D-Nal(2′)-Arg-Trp-Lys)-NH2 (Hruby V. J., Lu D., Sharma S. D., et al. Cyclic lactam alpha-melanotropin analogues of Ac-Nle^4-cyclo[Asp^5, D-Phe^7, Lys^10]-NH2 with bulky aromatic amino acids at position 7 show high antagonist potency and selectivity at specific melanocortin receptors. J Med Chem 38:3454-3461 (1995)). Antagonists such as SHU9119 are known to inhibit MT-II and other known melanocortin receptor-specific agonists that induce erectile activity. SHU9119 was administered to male rats approximately 5 minutes before administration of either NH2—(CH2)6CO-Ser(Bzl)-D-Phe(4-Cl)-Arg or NH2—(CH2)6CO-Ser(Bzl)-D-Phe(4-Cl)-Arg-Trp-NH2, with Ac-Nle-cyc/o(Asp-His-D-Phe-Arg-Trp-Lys)-OH, a known MC4-R agonist, as a positive control.

*1 amine or outer side, *2 acyl side, *3 side chain or, on linkers, in order; H or OH if unused. Where a SMILES comes first, the peptide text is derived from it. [ ]: non-standard residue; d: D form. The star is where a group is joined. Arg(NO2) = N=C(NCCC[C@H](N)C(=O)O)N[N+](=O)[O-]; Ser(Bzl) = O=C([C@H](COCc1ccccc1)N[*:1])[*:2]; dPhe(4-Cl) = N[C@H](Cc1ccc(Cl)cc1)C(=O)O; d2Nal = N[C@H](Cc1ccc2ccccc2c1)C(=O)O; Cit = NC(=O)NCCC[C@H](N)C(=O)O; Orn = NCCC[C@H](N)C(=O)O; Ahp = NCCCCCCC(=O)O; Bn = c1ccc(C*)cc1

T3 sequence (Q01727 whole entry): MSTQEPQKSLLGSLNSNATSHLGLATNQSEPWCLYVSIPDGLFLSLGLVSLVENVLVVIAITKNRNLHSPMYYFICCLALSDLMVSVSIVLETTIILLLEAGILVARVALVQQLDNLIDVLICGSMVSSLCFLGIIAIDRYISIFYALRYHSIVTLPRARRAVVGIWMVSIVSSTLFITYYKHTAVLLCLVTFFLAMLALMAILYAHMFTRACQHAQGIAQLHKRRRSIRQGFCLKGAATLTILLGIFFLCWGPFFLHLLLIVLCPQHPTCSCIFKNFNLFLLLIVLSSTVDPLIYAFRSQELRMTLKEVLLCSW
T1 sequence (P33032 whole entry): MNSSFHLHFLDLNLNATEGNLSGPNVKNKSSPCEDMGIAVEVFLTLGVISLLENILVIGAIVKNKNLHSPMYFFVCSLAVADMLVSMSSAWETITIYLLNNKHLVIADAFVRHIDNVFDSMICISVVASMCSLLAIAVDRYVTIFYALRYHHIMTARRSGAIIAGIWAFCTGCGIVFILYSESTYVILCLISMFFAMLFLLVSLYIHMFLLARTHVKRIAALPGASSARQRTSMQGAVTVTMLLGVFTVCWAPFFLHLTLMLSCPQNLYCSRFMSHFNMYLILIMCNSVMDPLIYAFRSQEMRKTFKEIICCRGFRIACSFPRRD

As for `NCCCCCCC(=O)N[C@@H](COCc1ccccc1)C(=O)N[C@H](Cc1ccc(Cl)cc1)C(=O)N[C@@H](CCCNC(N)=O)C(=O)O` [NH2—(CH2)6—CO-Ser(Bzl)-D-Phe(4-Cl)-Cit] (H-[Ahp]S(Bn)[dPhe(4-Cl)][Cit]-OH), the inhibition at 10 µM (on hMC5-R; on hMC3-R; in assay [1]; on hMC4-R) was 0% in each case.

Regarding `N=C(N)NCCC[C@H](NC(=O)[C@@H](Cc1ccc2ccccc2c1)NC(=O)[C@H](COCc1ccccc1)NC(=O)CCCCCCN)C(N)=O` [NH2—(CH2)6—CO-Ser(Bzl)-D-Nal 2-Arg-NH2] (H-[Ahp]S(Bn)[d2Nal]R-NH2), the inhibition at 10 µM (at hMC5-R; at hMC3-R; in assay [1]; on hMC4-R) was 0% throughout.

With `NCCCCCCC(=O)N[C@@H](COCc1ccccc1)C(=O)N[C@H](Cc1ccc(Cl)cc1)C(=O)N[C@@H](CCCNC(N)=N[N+](=O)[O-])C(=O)O` [NH2—(CH2)6—CO-Ser(Bzl)-D-Phe(4-Cl)-Arg(NO2)] (H-[Ahp]S(Bn)[dPhe(4-Cl)][Arg(NO2)]-OH), the inhibition at 10 µM (on hMC5-R; on hMC3-R; in assay [1]; on hMC4-R) was 0% in each case. Moreover, the “animals with induction of penile erection at efficacious doses” value in the assay with male Sprague-Dawley rats (intravenous, 0.001 to 10 μg/kg) is reported as 100%. Also, the “peak (optimal) dose response, intranasal” value with male Sprague-Dawley rats (male Sprague Dawley rats) was 0.1 µg/kg; in the assay with male Sprague-Dawley rats (male Sprague Dawley rats, listed as NH2—(CH2)6Co-Ser(Bzl)-D-Phe(4-Cl)-Arg(NO2)) it was “about 0.1 μg/kg”. Further, the “optimal dose response, intravenous” value with male Sprague-Dawley rats (male Sprague Dawley rats, intravenous) was 1 µg/kg.

With `NCCCCCCC(=O)N[C@@H](COCc1ccccc1)C(=O)N[C@H](Cc1ccc(Cl)cc1)C(=O)N[C@@H](CCCN)C(=O)O` [NH2—(CH2)6—CO-Ser(Bzl)-D-Phe(4-Cl)-Orn] (H-[Ahp]S(Bn)[dPhe(4-Cl)][Orn]-OH), the inhibition at 10 µM (on hMC5-R; on hMC3-R; in assay [1]; at hMC4-R) was 0% in each case.

With `N=C(N)NCCC[C@H](NC(=O)[C@@H](Cc1ccc2ccccc2c1)NC(=O)[C@H](COCc1ccccc1)NC(=O)CCCCCCN)C(=O)O` [NH2—(CH2)6—CO-Ser(Bzl)-D-Nal 2-Arg] (H-[Ahp]S(Bn)[d2Nal]R-OH), the inhibition at 10 µM (at hMC5-R; at hMC3-R; in assay [1]; at hMC4-R) was 0% each time.

On to `C[C@@H](NC(=O)[C@H](COCc1ccccc1)NC(=O)CCCCCCN)C(=O)N[C@@H](CCCNC(=N)N)C(=O)O` [NH2—(CH2)6—CO-Ser(Bzl)-D-Ala-Arg] (H-[Ahp]S(Bn)[dA]R-OH), for which the inhibition at 10 µM (on hMC5-R; on hMC3-R; in assay [1]; at hMC4-R) was 0% throughout.

For `CC(=O)N[C@@H](COCc1ccccc1)C(=O)N[C@H](Cc1ccc(Cl)cc1)C(=O)N[C@@H](CCCNC(=N)N)C(=O)O` [Ac-Ser(Bzl)-D-Phe(4-Cl)-Arg] (Ac-Ser(Bn)-[dPhe(4-Cl)]-Arg-OH), the inhibition at 10 µM (on hMC5-R; on hMC3-R; in assay [1]; on hMC4-R) was 0% each time.

Consider `C[C@H](NC(=O)[C@@H](Cc1ccc(Cl)cc1)NC(=O)[C@H](COCc1ccccc1)NC(=O)CCCCCCN)C(=O)O` [NH2—(CH2)6—CO-Ser(Bzl)-D-Phe(4-Cl)-Ala] (H-[Ahp]S(Bn)[dPhe(4-Cl)]A-OH), for which the inhibition at 10 µM (on hMC5-R; on hMC3-R; in assay [1]; on hMC4-R) was 0% in each case.

As to `C[C@H](NC(=O)CCCCCCN)C(=O)N[C@H](Cc1ccc(Cl)cc1)C(=O)N[C@@H](CCCNC(=N)N)C(=O)O` [NH2—(CH2)6—CO-Ala-D-Phe(4-Cl)-Arg] (H-[Ahp]A[dPhe(4-Cl)]R-OH), the inhibition at 10 µM (on hMC5-R; at hMC3-R; in assay [1]; on hMC4-R) was 0% in each case.

Regarding `N=C(N)NCCC[C@H](NC(=O)[C@@H](Cc1ccc(Cl)cc1)NC(=O)[C@@H](N)COCc1ccccc1)C(=O)O` [Ser(Bzl)-D-Phe(4-Cl)-Arg] (H-Ser(Bn)-[dPhe(4-Cl)]-Arg-OH), the inhibition at 10 µM (on hMC5-R; on hMC3-R; in assay [1]; at hMC4-R) was 0% throughout.

Regarding `NCCCCCCC(=O)N[C@@H](COCc1ccccc1)C(=O)N[C@H](Cc1ccc(Cl)cc1)C(=O)N[C@@H](CCCCN)C(=O)O` [NH2—(CH2)6—CO-Ser(Bzl)-D-Phe(4-Cl)-Lys] (H-[Ahp]S(Bn)[dPhe(4-Cl)]K-OH), the inhibition at 10 µM (on hMC5-R; on hMC3-R; in assay [1]; on hMC4-R) was 0% throughout.

`N=C(N)NCCC[C@H](NC(=O)[C@@H](Cc1ccc(Cl)cc1)NC(=O)[C@H](COCc1ccccc1)NC(=O)CCCCCCN)C(N)=O` [NH2—(CH2)6—CO-Ser(Bzl)-D-Phe(4-Cl)-Arg-NH2] (H-[Ahp]S(Bn)[dPhe(4-Cl)]R-NH2): the inhibition at 10 µM (at hMC5-R; at hMC3-R; in assay [1]; at hMC4-R) was 0% each time.

For the compound “NH2—(CH2)6CO-Ser(Bzl)-D-Phe(4-Cl)-Arg-Trp-NH2 ({NH2‑(CH2)6‑CO}-[Ser(Bzl)][dPhe(4-Cl)]RW-NH2)”, the “effect of SHU9119 pre-administration on induced erections” value with male rats was “resulted in erections at a rate equivalent to that obtained without pre-administration of SHU9119”.

Values taken from patent US7795378B2, “Peptide compositions for treatment of sexual dysfunction” (Palatin Technologies, Inc., priority 2002, dated 2010).
